Data published in US12577526B2, “Massively parallel on-chip construction of synthetic microbial communities” (MASSACHUSETTS INSTITUTE OF TECHNOLOGY, priority 2019, dated 2026).
“Also recorded” adds a separate entry of the source.

tested on: Herbaspirillum frisingense (Hf-GFP); test: Hf-GFP facilitation screen on kChip (Hf-GFP yield in co-culture with soil isolate compositions, single carbon sources); assay type: cell-based; settings: single carbon source 0.5% w/v, by 72 hours
Procedure: Microbial cultures were prepared as described in the “Microbial culture input preparation” section above. The culture medium for H. frisingense revival from a glycerol stock also included the selection antibiotic kanamycin (30 μg/mL). Six carbon sources (galactose, glucose, fructose, raffinose, lactose, sucrose) were prepared as described in the “Carbon source input preparation” section above to a concentration of 2% w/v, which were added 1:1 with MM+0.05% w/v BSA to produce 1×MM+1% w/v carbon source (six unique MM each with one carbon source). A plate of 16 color codes were also prepared in advance at 50 μM total concentration (“kChip input preprocessing” section above).
At the onset of the screen, all cultures were washed three times and resuspended in MM+0.05% w/v BSA (no carbon source) and normalized to an initial OD600=0.08. A “droplet plate” (96-well plate) was prepared whereby each of 16 wells, corresponding to the 16 input conditions of the screen, received the following four elements: (1) 50 μL MM+1% w/v carbon source; (2) 25 μL unique soil isolate at OD600=0.08 (or a no-isolate control or a negative control); (3) 25 μL Hf-GFP at OD600=0.08; and (4) 2 μL 50 μM color code. The two controls, a negative control and a no-isolate control, were in principle the same (just different color codes), with the negative control used to measure Hf-GFP monocultures and the no-isolate used to calculate isolate-mediated differences. The carbon source and color code were mixed in advance, though the cultures were added just before making droplets to load on a kChip.
After emulsification, each 1-nL droplet contained the following: (1) 0.5% w/v carbon source; (2) soil isolate at OD600=0.02 (˜20 cells) (or no-isolate control or negative control); (3) Hf-GFP at OD600=0.02 (˜20 cells); and (4) a set of color code (total concentration of all three fluorescent dyes at 1 μM). Droplets were prepared for each carbon source at a time and loaded onto a k={1:7;19} Chip, i.e. first all sucrose-containing droplets were prepared and loaded onto the first kChip in the screen, then all lactose-containing droplets were prepared and loaded onto the second kChip, and so forth. Because there were only 16 inputs in total, there were no instances where all inputs were unique in k=19 microwells. The instant analysis was focused upon the k=1-7 microwells, and specifically on instances where all droplets within a given microwell were unique. Throughput tradeoffs associated with this number of inputs and k values are discussed below.
After loading droplets, the kChip was imaged to read the color-code of each droplet (“pre-merge” scan) and droplet sets were merged within their corresponding microwells (“Droplet making and kChip loading” section above). The post-merge communities contained the following: (1) 0.5% w/v carbon source; (2) k=1, 2, 3, 4, 5, 6, 7, or 19 soil isolates collectively at OD600=0.02 (or no-isolate control or negative control); (3) Hf-GFP at OD600=0.02; and (4) 1 μM mixed color codes (no longer serving a purpose). […]

Molecule	Hf-GFP monoculture growth/yield on the carbon source
O=C(CO)[C@@H](O)[C@H](O)[C@H](O)CO [fructose]	low
OC[C@H]1O[C@@H](O[C@H]2[C@H](O)[C@@H](O)C(O)O[C@@H]2CO)[C@H](O)[C@@H](O)[C@H]1O (stereo partly drawn) [lactose]	low
OC[C@H]1O[C@H](OC[C@H]2O[C@H](O[C@]3(CO)O[C@H](CO)[C@@H](O)[C@@H]3O)[C@H](O)[C@@H](O)[C@@H]2O)[C@H](O)[C@@H](O)[C@H]1O [raffinose]	low
O=C[C@H](O)[C@@H](O)[C@@H](O)[C@H](O)CO [galactose]	high yield
OC[C@H]1O[C@@](CO)(O[C@H]2O[C@H](CO)[C@@H](O)[C@H](O)[C@H]2O)[C@@H](O)[C@@H]1O [sucrose]	indistinguishable from background; also recorded: undetectably low

tested on: panel of seven fluorescent strains; test: not given; settings: cultures unable to grow on a given carbon source, BSA added

Molecule	serving as an alternative carbon source (false positive growth)
bovine serum albumin [BSA]	caused no false positives
